Measured values from publication PMC3951249 (Bioorganic & medicinal chemistry letters, 2014).

Key:
[1] = tested on: CYP (isoforms not named); assay: CYP profile; assay type: in vitro ADME
[2] = biological target: T1, GlyT1 (Homo sapiens, UniProt P48067); details: ref 13-15 (1 and 2), ref 5-8 (NFPS); cited from earlier work
T1 sequence (P48067 1-706): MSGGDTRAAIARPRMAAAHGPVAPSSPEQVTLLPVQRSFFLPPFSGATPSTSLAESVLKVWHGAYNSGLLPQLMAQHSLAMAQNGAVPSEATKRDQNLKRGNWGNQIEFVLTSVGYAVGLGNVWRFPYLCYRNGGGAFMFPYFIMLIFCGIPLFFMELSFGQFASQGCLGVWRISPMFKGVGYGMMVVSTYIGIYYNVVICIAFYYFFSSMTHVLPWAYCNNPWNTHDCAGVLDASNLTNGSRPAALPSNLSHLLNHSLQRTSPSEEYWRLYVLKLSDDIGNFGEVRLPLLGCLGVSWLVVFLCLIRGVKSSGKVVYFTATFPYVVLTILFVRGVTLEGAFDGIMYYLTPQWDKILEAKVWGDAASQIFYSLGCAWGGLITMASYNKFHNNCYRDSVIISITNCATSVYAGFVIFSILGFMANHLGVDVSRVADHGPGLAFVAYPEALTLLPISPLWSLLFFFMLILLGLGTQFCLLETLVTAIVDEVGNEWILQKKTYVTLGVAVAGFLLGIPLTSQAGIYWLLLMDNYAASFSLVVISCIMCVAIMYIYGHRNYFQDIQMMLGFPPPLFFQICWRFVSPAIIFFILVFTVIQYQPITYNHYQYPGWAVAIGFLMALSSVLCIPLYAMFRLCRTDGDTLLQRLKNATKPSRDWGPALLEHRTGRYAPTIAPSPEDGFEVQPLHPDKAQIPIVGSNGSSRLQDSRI

[3] = biological target: T1, GlyT1; assay: GlyT1 inhibition, [14C]-glycine uptake assay; assay type: cell-based; details: for loss in GlyT1 potency relative to piperidine analog: 4a vs 2, 4b vs 1
[4] = biological target: T1, GlyT1; details: 30 mg/kg oral; cited from earlier work
[5] = data reported for Merck's 2; cited from earlier work
[6] = data reported for Merck's 2; cited from earlier work; remark: listed apart in the source
[7] = tested on: prepulse inhibition (PPI) of the rodent acoustic startle response; assay: prepulse inhibition; assay type: in vivo; details: rat, 30 mg/kg p.o.
[8] = brain tissue distribution study; assay type: in vivo; details: rat
[9] = biological target: CYP3A4 (Homo sapiens, UniProt P08684); assay: CYP inhibition; assay type: in vitro ADME
Sequence of CYP3A4 (P08684 whole entry): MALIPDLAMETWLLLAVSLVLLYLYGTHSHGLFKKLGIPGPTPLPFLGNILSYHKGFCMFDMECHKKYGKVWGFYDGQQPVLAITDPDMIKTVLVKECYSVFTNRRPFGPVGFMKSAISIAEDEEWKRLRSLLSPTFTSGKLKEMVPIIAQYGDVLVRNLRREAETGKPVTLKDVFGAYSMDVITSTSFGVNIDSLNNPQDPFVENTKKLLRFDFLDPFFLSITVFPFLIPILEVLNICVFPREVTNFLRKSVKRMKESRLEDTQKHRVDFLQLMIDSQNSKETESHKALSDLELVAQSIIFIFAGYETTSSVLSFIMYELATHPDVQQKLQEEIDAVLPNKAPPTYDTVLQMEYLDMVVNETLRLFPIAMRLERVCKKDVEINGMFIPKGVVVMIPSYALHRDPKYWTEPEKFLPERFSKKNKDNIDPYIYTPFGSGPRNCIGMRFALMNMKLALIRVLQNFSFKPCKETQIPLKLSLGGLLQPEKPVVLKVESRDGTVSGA

[10] = fraction unbound in human plasma; assay type: in vitro ADME; details: fu (hum)
[11] = tested on: 68 GPCRs, ion channels and transporters; assay: Eurofin Lead Profiling panel of radioligand binding assays; details: @10 μM, 68 targets
[12] = biological target: T2, GlyT2 (Homo sapiens, UniProt Q9Y345); assay: GlyT2 inhibition; assay type: cell-based
T2 sequence (Q9Y345 1-797): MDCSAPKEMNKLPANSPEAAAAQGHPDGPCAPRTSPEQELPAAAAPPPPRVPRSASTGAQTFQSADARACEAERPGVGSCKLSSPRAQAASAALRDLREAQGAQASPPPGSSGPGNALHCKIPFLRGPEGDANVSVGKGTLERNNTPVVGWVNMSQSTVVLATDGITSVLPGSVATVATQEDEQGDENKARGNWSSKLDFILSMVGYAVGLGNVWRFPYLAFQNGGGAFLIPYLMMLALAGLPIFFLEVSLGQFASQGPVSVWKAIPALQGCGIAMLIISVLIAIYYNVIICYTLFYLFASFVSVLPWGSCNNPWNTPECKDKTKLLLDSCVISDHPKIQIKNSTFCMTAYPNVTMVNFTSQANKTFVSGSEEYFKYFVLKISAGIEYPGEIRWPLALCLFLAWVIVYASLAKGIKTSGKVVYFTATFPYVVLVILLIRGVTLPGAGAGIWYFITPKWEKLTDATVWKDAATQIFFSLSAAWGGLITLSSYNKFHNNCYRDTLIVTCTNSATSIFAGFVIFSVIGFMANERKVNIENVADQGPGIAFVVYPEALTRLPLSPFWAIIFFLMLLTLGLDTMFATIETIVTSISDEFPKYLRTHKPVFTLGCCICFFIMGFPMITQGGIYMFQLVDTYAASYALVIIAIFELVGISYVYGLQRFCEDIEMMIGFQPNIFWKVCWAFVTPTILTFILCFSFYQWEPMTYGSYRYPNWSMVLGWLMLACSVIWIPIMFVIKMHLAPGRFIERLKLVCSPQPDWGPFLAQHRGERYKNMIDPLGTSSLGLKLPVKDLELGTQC

[13] = stability in rat plasma; assay type: in vitro ADME; details: 4 hours at 37 °C
[14] = in vitro intrinsic clearance, rat; assay type: in vitro ADME; details: from in vitro intrinsic clearance
[15] = in vitro intrinsic clearance, human; assay type: in vitro ADME; details: from in vitro intrinsic clearance

## Cn1cnc(S(=O)(=O)N2C[C@@H]3[C@H](C2)[C@@]3(CNC(=O)c2ccccc2C(F)(F)F)c2ccccn2)c1 [Compound 11]
[1]
  IC50: > 30 µM

## CCCS(=O)(=O)N1CCC(c2ccccc2)([C@H](C)NC(=O)c2ccc(Cl)cc2Cl)CC1 [Compound 1]
[2]
  known mechanism of action with respect to glycine: competitive

## Cn1cnc(S(=O)(=O)N2C[C@@H]3[C@H](C2)[C@@]3(CNC(=O)c2c(Cl)cccc2Cl)CC2CC2)c1 [Compound 12c]
[3]; [14C]-glycine transport, 40 nM 12c
  mechanism of inhibition with respect to glycine (Eadie-Hoffstee plot): competitive

## CCS(=O)(=O)N1CCC(CNC(=O)c2ccc(Cl)cc2Cl)(CC2CC2)CC1 [Compound 2]
[4]
  occupancy: > 90%
[2]
  known mechanism of action with respect to glycine: competitive
[5]
  clearance in rat: moderate to high clearance
[6]
  clearance in dog: low clearance
[7]
  effect on basal startle amplitude during no-stimulus trials: no effect

## CCCS(=O)(=O)N1C[C@@H]2[C@H](C1)[C@@]2(CNC(=O)c1ccc(Cl)cc1Cl)CC1CC1 [Compound 4b]
[3]
  loss in GlyT1 potency relative to piperidine analog: ~ 150 fold

## Cn1cnc(S(=O)(=O)N2C[C@@H]3[C@H](C2)[C@@]3(CNC(=O)c2ccc(Cl)cc2Cl)c2ccccn2)c1 [Compound 10]
[1]
  IC50: > 30 µM

## CCS(=O)(=O)N1C[C@@H]2[C@H](C1)[C@@]2(CNC(=O)c1ccc(Cl)cc1Cl)CC1CC1 [Compound 4a]
[3]
  loss in GlyT1 potency relative to piperidine analog: 50 fold

## Cn1cnc(S(=O)(=O)N2C[C@@H]3[C@H](C2)[C@@]3(CNC(=O)c2ccccc2C(F)(F)F)CC2CC2)c1 [Compound 12d]
[8]; 10 mg/kg p.o. in 0.5% methocellulose
  brain AUC0-6hr: 0.956 µM·h
[8]; 10 mg/kg s.c. in 10% tween 80
  brain AUC0-6hr: 0.431 µM·h
[9]
  IC50: 14.9 µM
[10]
  fraction unbound: 0.068
[11]
  inhibition against any target in the panel: ≤ 50%
[12]
  IC50: > 30 µM
[13]
  stability in rat plasma: stable
[14]
  predicted hepatic clearance ClHEP: 43.0 mL/min/kg
[15]
  predicted hepatic clearance ClHEP: 17.7 mL/min/kg
[7]
  effect on basal startle amplitude during no-stimulus trials: no effect
